Experimental data published in PMC4435547 (The journal of maternal-fetal & neonatal medicine : the …, 2009).

How the values were obtained:
[1] = test system: dually perfused human placental lobule
[2] = test system: placenta; settings: cited from earlier work

Cc1cc(=O)n(-c2ccccc2)n1C [Antipyrine, antipyrine]
effect of HSA, AAG or their combination in the perfusion medium on transfer of AP across the placental lobule ([1]; HSA, AAG, or their combination): not affected | Antipyrine Fetal/Maternal concentration ratio ([1]; human, 20 µg/mL): 0.84 ± 0.11

COc1ccc(Cl)cc1C(=O)NCCc1ccc(S(=O)(=O)NC(=O)NC2CCCCC2)cc1 [glyburide]
fetal/maternal concentration ratio in presence of HSA versus absence of the protein [2]: significantly lower
